Converted amounts (≈) assume the structure as drawn. The source made the active and inactive calls. The calls are words filed in the database; no cut-off is given here.
Legend:
Salmonella typhi [1] = assay: Antibacterial activity against Salmonella typhi measured after 24 hrs by NCCL protocol based broth dilution method; assay type: functional, Salmonella enterica subsp. enterica serovar Typhi
Candida albicans [2] = assay: Antifungal activity against Candida albicans MTCC 3017 measured after 48 hrs by NCCL protocol based broth dilution method; assay type: functional
Micrococcus luteus [3] = assay: Antibacterial activity against Micrococcus luteus MTCC 106 measured after 24 hrs by NCCL protocol based broth dilution method; assay type: functional
Candida albicans [4] = assay: Antifungal activity against Candida albicans MTCC 3017 assessed as zone of inhibition at 100 ug/well measured after 48 hrs by agar well diffusion method; assay type: functional; details: MTCC 3017, 48 h, read-out: DIZ
Staphylococcus aureus [5] = assay: Antibacterial activity against Staphylococcus aureus MTCC 3160 assessed as zone of inhibition at 100 ug/well measured after 24 hrs by agar well diffusion method; assay type: functional; details: MTCC 3160, 24 h, read-out: DIZ
Aspergillus fumigatus [6] = assay: Antifungal activity against Aspergillus fumigatus MTCC 343 measured after 48 hrs by NCCL protocol based broth dilution method; assay type: functional
Aspergillus fumigatus [7] = assay: Antifungal activity against Aspergillus fumigatus MTCC 343 assessed as zone of inhibition at 100 ug/well measured after 48 hrs by agar well diffusion method; assay type: functional; details: MTCC 343, 48 h, read-out: DIZ
Klebsiella pneumoniae [8] = assay: Antibacterial activity against Klebsiella pneumoniae MTCC 3384 assessed as zone of inhibition at 100 ug/well measured after 24 hrs by agar well diffusion method; assay type: functional; details: MTCC 3384, 24 h, read-out: DIZ
Salmonella paratyphi [9] = assay: Antibacterial activity against Salmonella paratyphi measured after 24 hrs by NCCL protocol based broth dilution method; assay type: functional, Salmonella enterica subsp. enterica serovar Paratyphi A
Micrococcus luteus [10] = assay: Antibacterial activity against Micrococcus luteus MTCC 106 assessed as zone of inhibition at 100 ug/well measured after 24 hrs by agar well diffusion method; assay type: functional; details: MTCC 106, 24 h, read-out: DIZ
Salmonella paratyphi [11] = assay: Antibacterial activity against Salmonella paratyphi assessed as zone of inhibition at 100 ug/well measured after 24 hrs by agar well diffusion method; assay type: functional, Salmonella enterica subsp. enterica serovar Paratyphi A; details: Salmonella enterica, read-out: DIZ
Streptococcus mutans [12] = assay: Antibacterial activity against Streptococcus mutans MTCC 497 measured after 24 hrs by NCCL protocol based broth dilution method; assay type: functional
Klebsiella pneumoniae [13] = assay: Antibacterial activity against Klebsiella pneumoniae MTCC 3384 measured after 24 hrs by NCCL protocol based broth dilution method; assay type: functional
Salmonella typhi [14] = assay: Antibacterial activity against Salmonella typhi assessed as zone of inhibition at 100 ug/well measured after 24 hrs by agar well diffusion method; assay type: functional, Salmonella enterica subsp. enterica serovar Typhi; details: Salmonella enterica, read-out: DIZ
Streptococcus mutans [15] = assay: Antibacterial activity against Streptococcus mutans MTCC 497 assessed as zone of inhibition at 100 ug/well measured after 24 hrs by agar well diffusion method; assay type: functional; details: MTCC 497, 24 h, read-out: DIZ
Staphylococcus aureus [16] = assay: Antibacterial activity against Staphylococcus aureus MTCC 3160 measured after 24 hrs by NCCL protocol based broth dilution method; assay type: functional

SMILES	MIC (Salmonella typhi [1]; Salmonella enterica) [µg/mL]	MIC (Candida albicans [2]; MTCC 3017, 48 h) [µg/mL]	MIC (Micrococcus luteus [3]; MTCC 106, 24 h) [µg/mL]	zone of inhibition at 100 µg/disc (Candida albicans [4]) [mm]	zone of inhibition at 100 µg/disc (Staphylococcus aureus [5]) [mm]	MIC (Aspergillus fumigatus [6]; MTCC 343, 48 h) [µg/mL]	zone of inhibition at 100 µg/disc (Aspergillus fumigatus [7]) [mm]	zone of inhibition at 100 µg/disc (Klebsiella pneumoniae [8]) [mm]	MIC (Salmonella paratyphi [9]; Salmonella enterica) [µg/mL]	zone of inhibition at 100 µg/disc (Micrococcus luteus [10]) [mm]	zone of inhibition at 100 µg/disc (Salmonella paratyphi [11]) [mm]	MIC (Streptococcus mutans [12]; MTCC 497, 24 h) [µg/mL]	MIC (Klebsiella pneumoniae [13]; MTCC 3384, 24 h) [µg/mL]	zone of inhibition at 100 µg/disc (Salmonella typhi [14]) [mm]	zone of inhibition at 100 µg/disc (Streptococcus mutans [15]) [mm]	MIC (Staphylococcus aureus [16]; MTCC 3160, 24 h) [µg/mL]	other results
CC1(C)O[C@H]2O[C@@H]3COB(c4ccc(/C=N/c5ccc(F)cc5)cc4)O[C@@H]3[C@H]2O1	62.5 (≈ 157 µM)	125 (≈ 315 µM)	62.5 (≈ 157 µM)	16	18	250 (≈ 629 µM)	0	21	31.2 (≈ 78.7 µM)	15	22	31.2 (≈ 78.7 µM)	31.2 (≈ 78.7 µM)	20	21	62.5 (≈ 157 µM)	–
CC1(C)O[C@H]2O[C@@H]3COB(c4cccc(/C=N/c5ccc(F)cc5)c4)O[C@@H]3[C@H]2O1	31.2 (≈ 78.7 µM)	62.5 (≈ 157 µM)	125 (≈ 315 µM)	19	20	250 (≈ 629 µM)	0	16	31.2 (≈ 78.7 µM)	11	21	62.5 (≈ 157 µM)	62.5 (≈ 157 µM)	24	18	31.2 (≈ 78.7 µM)	–
OB(O)c1ccc(/C=N/c2ccc(F)cc2)cc1	500 (≈ 2060 µM)	500 (≈ 2060 µM)	500 (≈ 2060 µM)	0	9	500 (≈ 2060 µM)	0	0	500 (≈ 2060 µM)	0	0	250 (≈ 1030 µM)	500 (≈ 2060 µM)	9	11	500 (≈ 2060 µM)	–
CC1(C)O[C@H]2O[C@@H]3COB(c4cccc(/N=C/c5cc([N+](=O)[O-])ccc5O)c4)O[C@@H]3[C@H]2O1	15.6 (≈ 35.5 µM)	31.2 (≈ 71 µM)	15.6 (≈ 35.5 µM)	23	21	62.5 (≈ 142 µM)	22	18	31.2 (≈ 71 µM)	25	21	31.2 (≈ 71 µM)	62.5 (≈ 142 µM)	28	23	31.2 (≈ 71 µM)	–
CC1(C)O[C@H]2O[C@@H]3COB(c4cccc(/C=N/c5ccc(Cl)cc5)c4)O[C@@H]3[C@H]2O1	31.2 (≈ 75.5 µM)	250 (≈ 604 µM)	125 (≈ 302 µM)	11	15	500 (≈ 1210 µM)	0	22	250 (≈ 604 µM)	17	13	125 (≈ 302 µM)	62.5 (≈ 151 µM)	25	16	250 (≈ 604 µM)	–
Cc1ccccc1B1OC[C@H]2O[C@@H]3OC(C)(C)O[C@@H]3[C@H]2O1	250 (≈ 862 µM)	500 (≈ 1720 µM)	250 (≈ 862 µM)	7	7	500 (≈ 1720 µM)	6	6	125 (≈ 431 µM)	6	6	125 (≈ 431 µM)	250 (≈ 862 µM)	7	9	250 (≈ 862 µM)	–
CC1(C)O[C@H]2O[C@@H]3COB(c4cccc(N)c4)O[C@@H]3[C@H]2O1	500 (≈ 1720 µM)	500 (≈ 1720 µM)	250 (≈ 859 µM)	13	12	500 (≈ 1720 µM)	0	12	500 (≈ 1720 µM)	13	13	125 (≈ 429 µM)	500 (≈ 1720 µM)	11	17	500 (≈ 1720 µM)	–
CC1(C)O[C@H]2O[C@@H]3COB(c4ccccc4C=O)O[C@@H]3[C@H]2O1	31.2 (≈ 103 µM)	31.2 (≈ 103 µM)	62.5 (≈ 206 µM)	26	20	31.2 (≈ 103 µM)	25	27	31.2 (≈ 103 µM)	18	21	62.5 (≈ 206 µM)	15.6 (≈ 51.4 µM)	26	20	62.5 (≈ 206 µM)	–
CC1(C)O[C@H]2O[C@@H]3COC(c4ccc(C=O)cc4)O[C@@H]3[C@H]2O1 (stereo not given in full)	–	–	–	0	0	–	0	0	–	0	0	–	–	0	0	–	MIC (Salmonella typhi [1]; Salmonella enterica subsp. enterica serovar Typhi): inactive; MIC (Candida albicans [2]): inactive; MIC (Micrococcus luteus [3]): inactive; MIC (Aspergillus fumigatus [6]): inactive; MIC (Salmonella paratyphi [9]; Salmonella enterica subsp. enterica serovar Paratyphi A): inactive; MIC (Streptococcus mutans [12]): inactive; MIC (Klebsiella pneumoniae [13]): inactive; MIC (Staphylococcus aureus [16]): inactive
CC1(C)O[C@H]2O[C@@H]3COB(c4cccc(/N=C/c5cc(Br)ccc5O)c4)O[C@@H]3[C@H]2O1	31.2 (≈ 65.9 µM)	62.5 (≈ 132 µM)	31.2 (≈ 65.9 µM)	18	13	250 (≈ 527 µM)	0	21	62.5 (≈ 132 µM)	22	14	62.5 (≈ 132 µM)	62.5 (≈ 132 µM)	24	21	125 (≈ 264 µM)	–
